From ChEMBL document CHEMBL2074371, “The dietary polyphenol ellagic acid is a potent inhibitor of hOAT1” (Drug Metab Dispos, 2005)

What was measured:
[1] = target: T1, Solute carrier family 22 member 11 (Homo sapiens, UniProt Q9NSA0); test: TP_TRANSPORTER: inhibition of p-aminohippurate uptake (p-aminohippurate / 10uM) by ellagic acid at a concentration of 35uM in Xenopus laevis oocytes; assay type: functional, cell-based; design: scale not given: the % may be the effect or the level left; conditions: oocyte
T1 sequence (Q9NSA0 whole entry): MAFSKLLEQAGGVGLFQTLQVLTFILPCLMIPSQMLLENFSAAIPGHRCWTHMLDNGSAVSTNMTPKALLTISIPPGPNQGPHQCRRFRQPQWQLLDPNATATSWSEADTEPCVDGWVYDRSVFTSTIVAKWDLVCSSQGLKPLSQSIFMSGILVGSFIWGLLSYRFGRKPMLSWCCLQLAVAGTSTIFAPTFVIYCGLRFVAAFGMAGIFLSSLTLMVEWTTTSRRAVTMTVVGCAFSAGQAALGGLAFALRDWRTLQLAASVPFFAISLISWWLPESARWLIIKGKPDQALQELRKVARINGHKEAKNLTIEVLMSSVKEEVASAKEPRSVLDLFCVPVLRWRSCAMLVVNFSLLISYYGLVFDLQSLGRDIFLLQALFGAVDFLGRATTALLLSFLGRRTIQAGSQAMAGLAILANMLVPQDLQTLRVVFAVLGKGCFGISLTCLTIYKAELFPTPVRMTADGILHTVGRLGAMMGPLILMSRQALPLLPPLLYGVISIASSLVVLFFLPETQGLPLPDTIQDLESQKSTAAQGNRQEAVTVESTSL

[2] = target: T2, Solute carrier family 22 member 6 (Homo sapiens, UniProt Q4U2R8); test: TP_TRANSPORTER: inhibition of ochratoxin A uptake (ochratoxin A / 1uM) in Xenopus laevis oocytes; assay type: functional, cell-based, Oocyte
T2 sequence (Q4U2R8 whole entry): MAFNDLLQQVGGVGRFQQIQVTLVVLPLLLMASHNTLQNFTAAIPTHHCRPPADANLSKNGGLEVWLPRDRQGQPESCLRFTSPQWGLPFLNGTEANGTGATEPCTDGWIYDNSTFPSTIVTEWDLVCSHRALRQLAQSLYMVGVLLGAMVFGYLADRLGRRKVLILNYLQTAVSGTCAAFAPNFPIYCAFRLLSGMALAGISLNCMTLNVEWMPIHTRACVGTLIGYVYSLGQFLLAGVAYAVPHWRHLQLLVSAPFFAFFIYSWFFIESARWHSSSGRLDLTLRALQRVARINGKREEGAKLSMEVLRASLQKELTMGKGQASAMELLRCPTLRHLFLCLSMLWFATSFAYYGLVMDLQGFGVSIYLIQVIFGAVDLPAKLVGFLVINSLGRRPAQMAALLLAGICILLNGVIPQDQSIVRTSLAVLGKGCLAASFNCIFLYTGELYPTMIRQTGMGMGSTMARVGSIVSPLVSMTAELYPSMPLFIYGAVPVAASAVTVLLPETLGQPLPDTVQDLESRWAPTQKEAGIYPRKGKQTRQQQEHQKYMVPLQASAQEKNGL

[3] = target: T2, Solute carrier family 22 member 6; test: (§1) TP_TRANSPORTER: uptake in Xenopus laevis oocytes; assay type: functional, cell-based; conditions: oocyte
[4] = target: T1, Solute carrier family 22 member 11; test: as §1; assay type: functional, cell-based; conditions: oocyte

Structure (SMILES): O=c1oc2c(O)c(O)cc3c(=O)oc4c(O)c(O)cc1c4c23 [ELLAGIC ACID]
- Activity [1]: 35%
- IC50 [2]: 270 nM
- Activity [3]: substrate [+]
- Activity [4]: substrate [+]
